From PubChem BioAssay AID449764 (Southern Research Specialized Biocontainment Screening …, 2010)

Tested on: Mycobacterium tuberculosis H37Rv growth inhibition, no glycerol
Test: Mycobacterium tuberculosis H37Rv growth inhibition, no glycerol, confirmatory dose response (AID 449764);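 note: growth read after 7 days of incubation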
Conditions: not given

SMILES	IC50 [µM]
CCN(CC)Cc1nc2c(c(=O)[nH]1)C(CC)(CC)Cc1ccccc1-2	12.7
C[C@@H]1CN([C@H](C)CO)C(=O)c2cc(NC(=O)Nc3ccc(C(F)(F)F)cc3)ccc2O[C@H]1CN(C)S(=O)(=O)c1cccs1	21.7
Cc1cc([N+](=O)[O-])c2ccccc2[n+]1[O-]	8.67
Cc1nn(-c2ccccc2)c2c1C(c1ccc([N+](=O)[O-])cc1)N1C(=N2)C(=O)Nc2ccccc21 (stereo not drawn)	55.3
COc1ccc(C=C2C=C(C(C)(C)C)C(=O)C(C(C)(C)C)=C2)cc1OC	4.94
COc1ccc(NC(=O)CN(C)CC(=O)Nc2sc3c(c2C(N)=O)CCC3)cc1	82.4
CC(C)(C)NC(=O)[C@@H]1C[C@@H]2CCCC[C@@H]2CN1C[C@@H](O)[C@H](Cc1ccccc1)NC(=O)[C@H](CC(N)=O)NC(=O)c1ccc2ccccc2n1	32.9
CC1(C)C2CCC1(C)C(OCC[N+](C)(C)CC(=O)OC1CCCCC1)C2 (stereo not drawn)	12
COC(=O)c1ccc(COC(=O)CCc2nc(-c3ccccc3)c(-c3ccccc3)o2)cc1	44.9
Cc1ccc(C(=O)Sc2cccccc2=O)cc1	1.53
CC(C)(O)[C@H]1O[C@H]2CC[C@@]3(C)[C@@](O)(CC[C@H]4Cc5c([nH]c6ccccc56)[C@@]43C)C2=CC1=O	48.7
CCOC(=O)c1ccc2c(c1)C(=O)N(C1CCCCC1)C2=O	85
Cc1ccc(-c2nc3ccsc3c(=O)o2)cc1	4.19
NC1=NC[C@H](Cc2ccc(O)cc2)N1CCc1cccc2ccccc12	40.9
COc1ccc(C2CC(c3cccs3)=Nc3ccccc3S2)cc1 (stereo not drawn)	41.9
O=S1(=O)N(CCN2CC=C(c3c[nH]c4cc(F)ccc34)CC2)c2cccc3c2N1CCC3	11.2
Oc1ccc(/C=N/NC(=S)N2CCOCC2)cc1	6.06
CC(NC(=O)CCl)c1ccc(Cl)c(Cl)c1 (stereo not drawn)	4.1
Nc1c2c(nc3sc4c(c13)CCCCC4)CCCC2	3.12
N#CC1=C(c2ccccc2)/C(=C/c2ccccc2)OC1=O	11.6

SMILES	IC50 [µM]
Nc1cc([N+](=O)[O-])ccc1Nc1ccc(O)cc1	30.6
Cc1ccc(N2C(=O)C(F)(F)C2c2ccccc2)cc1 (stereo not drawn)	4.61
O=C1C2(Cl)C3(Cl)C4(Cl)C(Cl)(Cl)C5(Cl)C3(Cl)C1(Cl)C5(Cl)C24Cl (stereo not drawn)	44.4
C=CCS/C(N)=N\N=C\c1c(O)ccc2ccccc12	35.6
O=c1[nH]c(CN2CC=C(c3ccccc3)CC2)nc2cc(C(F)(F)F)ccc12	93.7
CN(C)C/C=C/C(=O)Nc1cccc(-c2c[nH]c3ncnc(Oc4ccc(NC(=O)CC(=O)Nc5ccc(F)cc5)cc4F)c23)c1	12.3
COc1ccc2c(c1)[C@@H]1[C@H](CO2)[C@H](c2ccccc2)[C@]2(C)C(=O)Nc3ccc(C)cc3C(=O)N12	71.1
COc1ccc2nc(N=NC3=C(O)CC(C)(C)CC3=O)sc2c1	13.5
Cc1sc2ncnc(Oc3ccc(-n4ccnc4)cc3)c2c1C	39.1
COc1cc(NC(=O)C/C(C)=N/NC(=O)c2ccccn2)c(OC)cc1Cl	5.83
CCOC(=O)CSC1=C(C#N)C(c2ccc(C)cc2)C2=C(CCCC2=O)N1 (stereo not drawn)	46.6
C=C1CCC[C@]2(C)C[C@H]3OC(=O)C(CNC(C)CCCC(C)C)[C@H]3CC12 (stereo partly drawn)	23.4
CCC[C@@H]1C[C@@H](C(=O)NC(C(C)Cl)[C@H]2O[C@H](SC)[C@H](O)[C@@H](O)[C@H]2O)N(C)C1 (stereo partly drawn)	3.91
COc1ccc(CCNc2nc(N3CCCCC3)nc(N3CCCCC3)n2)cc1OC	18
CCOC(=O)c1ccc(NC(=O)Cn2ncc(Cl)c(Cl)c2=O)cc1	< 0.2
O=C(Nc1nc2ccccc2[nH]1)C12CC3CC(CC(C3)C1)C2	13.5
O=C(c1cc2cc(F)ccc2[nH]1)N(Cc1cccnc1)CC1CCCN(C2CCCCC2)C1 (stereo not drawn)	42.6
O=C(OCn1ncc(Br)c(Br)c1=O)c1ccc(F)cc1	2.9
Cc1c([N+](=O)[O-])cnc(Sc2ccccc2)c1[N+](=O)[O-]	5.8

Same assay, conditions: measured here: IC90 growth inhibition

SMILES	IC90 [µM]
CCN(CC)Cc1nc2c(c(=O)[nH]1)C(CC)(CC)Cc1ccccc1-2	21.1
C[C@@H]1CN([C@H](C)CO)C(=O)c2cc(NC(=O)Nc3ccc(C(F)(F)F)cc3)ccc2O[C@H]1CN(C)S(=O)(=O)c1cccs1	24.1
Cc1cc([N+](=O)[O-])c2ccccc2[n+]1[O-]	13.8
Cc1nn(-c2ccccc2)c2c1C(c1ccc([N+](=O)[O-])cc1)N1C(=N2)C(=O)Nc2ccccc21 (stereo not drawn)	> 100
COc1ccc(C=C2C=C(C(C)(C)C)C(=O)C(C(C)(C)C)=C2)cc1OC	7.13
COc1ccc(NC(=O)CN(C)CC(=O)Nc2sc3c(c2C(N)=O)CCC3)cc1	> 100
CC(C)(C)NC(=O)[C@@H]1C[C@@H]2CCCC[C@@H]2CN1C[C@@H](O)[C@H](Cc1ccccc1)NC(=O)[C@H](CC(N)=O)NC(=O)c1ccc2ccccc2n1	52.8
CC1(C)C2CCC1(C)C(OCC[N+](C)(C)CC(=O)OC1CCCCC1)C2 (stereo not drawn)	13.1
COC(=O)c1ccc(COC(=O)CCc2nc(-c3ccccc3)c(-c3ccccc3)o2)cc1	> 100
Cc1ccc(C(=O)Sc2cccccc2=O)cc1	2.12
CC(C)(O)[C@H]1O[C@H]2CC[C@@]3(C)[C@@](O)(CC[C@H]4Cc5c([nH]c6ccccc56)[C@@]43C)C2=CC1=O	> 100
CCOC(=O)c1ccc2c(c1)C(=O)N(C1CCCCC1)C2=O	> 100
Cc1ccc(-c2nc3ccsc3c(=O)o2)cc1	> 100
NC1=NC[C@H](Cc2ccc(O)cc2)N1CCc1cccc2ccccc12	45.6
COc1ccc(C2CC(c3cccs3)=Nc3ccccc3S2)cc1 (stereo not drawn)	50.9
O=S1(=O)N(CCN2CC=C(c3c[nH]c4cc(F)ccc34)CC2)c2cccc3c2N1CCC3	12.3
Oc1ccc(/C=N/NC(=S)N2CCOCC2)cc1	6.83
CC(NC(=O)CCl)c1ccc(Cl)c(Cl)c1 (stereo not drawn)	7.74
Nc1c2c(nc3sc4c(c13)CCCCC4)CCCC2	8.41
N#CC1=C(c2ccccc2)/C(=C/c2ccccc2)OC1=O	23.2

SMILES	IC90 [µM]
Nc1cc([N+](=O)[O-])ccc1Nc1ccc(O)cc1	36.6
Cc1ccc(N2C(=O)C(F)(F)C2c2ccccc2)cc1 (stereo not drawn)	7.9
O=C1C2(Cl)C3(Cl)C4(Cl)C(Cl)(Cl)C5(Cl)C3(Cl)C1(Cl)C5(Cl)C24Cl (stereo not drawn)	65.2
C=CCS/C(N)=N\N=C\c1c(O)ccc2ccccc12	55.4
O=c1[nH]c(CN2CC=C(c3ccccc3)CC2)nc2cc(C(F)(F)F)ccc12	98.9
CN(C)C/C=C/C(=O)Nc1cccc(-c2c[nH]c3ncnc(Oc4ccc(NC(=O)CC(=O)Nc5ccc(F)cc5)cc4F)c23)c1	14
COc1ccc2c(c1)[C@@H]1[C@H](CO2)[C@H](c2ccccc2)[C@]2(C)C(=O)Nc3ccc(C)cc3C(=O)N12	> 100
COc1ccc2nc(N=NC3=C(O)CC(C)(C)CC3=O)sc2c1	17.2
Cc1sc2ncnc(Oc3ccc(-n4ccnc4)cc3)c2c1C	61
COc1cc(NC(=O)C/C(C)=N/NC(=O)c2ccccn2)c(OC)cc1Cl	9.98
CCOC(=O)CSC1=C(C#N)C(c2ccc(C)cc2)C2=C(CCCC2=O)N1 (stereo not drawn)	> 100
C=C1CCC[C@]2(C)C[C@H]3OC(=O)C(CNC(C)CCCC(C)C)[C@H]3CC12 (stereo partly drawn)	26.2
CCC[C@@H]1C[C@@H](C(=O)NC(C(C)Cl)[C@H]2O[C@H](SC)[C@H](O)[C@@H](O)[C@H]2O)N(C)C1 (stereo partly drawn)	11.5
COc1ccc(CCNc2nc(N3CCCCC3)nc(N3CCCCC3)n2)cc1OC	23.3
CCOC(=O)c1ccc(NC(=O)Cn2ncc(Cl)c(Cl)c2=O)cc1	2.19
O=C(Nc1nc2ccccc2[nH]1)C12CC3CC(CC(C3)C1)C2	> 100
O=C(c1cc2cc(F)ccc2[nH]1)N(Cc1cccnc1)CC1CCCN(C2CCCCC2)C1 (stereo not drawn)	46.1
O=C(OCn1ncc(Br)c(Br)c1=O)c1ccc(F)cc1	4.77
Cc1c([N+](=O)[O-])cnc(Sc2ccccc2)c1[N+](=O)[O-]	9.94
